Test results taken from EP1444982A1, “The use of purine derivatives as selective kinase inhibitors” (MERCKLE GMBH, priority 2003, dated 2004).

Legend:
Assay type in all cases: biochemical
Lck (h) = Lck (h) (Homo sapiens, UniProt P06239); assay: Kinase inhibition assay (33P-ATP, P30 filter, scintillation counting): Lck; details: 30µM Testsubstanz (100 µM ATP); read-out: Hemmung von Kinasen in % Lck (h)
Experimental: (§1) Alle Kinasen werden auf zehnfache Arbeitskonzentration vor Anwendung in dem Essay verdünnt. Die Zusammensetzung des Verdünnungspuffers ist für jede Kinase in der nachfolgenden Tabelle angegeben.
(§2) Alle Substrate werden gelöst und auf eine Stammlösung in entsalztem Wasser verdünnt.
(§3) Lck (h)(5-10 mU) in einem Endreaktionsvolumen von 25 µl wird mit 50 mM Tris pH 7.5, 0.1 mM EGTA, 0.1 mM NaVanadate, 250 µM KVEKIGEGTYGVVYK (Cdc2 Peptid), 10 mM MgAcetat und [γ-^33P-ATP] inkubiert (spezifische Aktivität etwa 500 cpm/pmol, Konzentration wie erforderlich). Die Reaktion wird durch Zugabe von Mg^2+[γ-^33P-ATP] initiiert. Nach 40-minütiger Inkubation bei Raumtemperatur wird die Reaktion durch Zugabe von 5 µl einer 3 %igen Phosphorsäurelösung gestoppt. 10 µl der Reaktion werden dann auf ein P30-Filter gegeben und dreimal jeweils 5 Minuten in 50 mM Phosphorsäure und einmal in Methanol gewaschen. Anschließend wird getrocknet und eine Szintillationszählung durchgeführt.

PKB (h) = PKB (h) (Homo sapiens, UniProt P31749); assay: Kinase inhibition assay (33P-ATP, P30 filter, scintillation counting): PKB; details: 40 min; 30µM Testsubstanz (100 µM ATP); read-out: Hemmung von Kinasen in % PKB (h)
PKB (h), sequence (P31749 whole entry): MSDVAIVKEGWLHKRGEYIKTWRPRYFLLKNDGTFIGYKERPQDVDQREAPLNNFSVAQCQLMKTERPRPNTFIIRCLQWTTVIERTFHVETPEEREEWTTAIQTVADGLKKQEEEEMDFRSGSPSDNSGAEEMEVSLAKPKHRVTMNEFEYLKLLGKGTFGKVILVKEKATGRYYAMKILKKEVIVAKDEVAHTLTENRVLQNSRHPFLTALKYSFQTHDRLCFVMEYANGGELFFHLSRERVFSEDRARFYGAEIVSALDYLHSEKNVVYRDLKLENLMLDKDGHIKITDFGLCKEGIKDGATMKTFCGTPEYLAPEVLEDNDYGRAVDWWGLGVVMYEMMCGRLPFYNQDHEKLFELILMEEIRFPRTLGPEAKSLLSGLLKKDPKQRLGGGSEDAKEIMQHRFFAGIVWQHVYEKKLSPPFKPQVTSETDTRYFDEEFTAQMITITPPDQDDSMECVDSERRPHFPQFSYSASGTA
Experimental: as §1, §2
PKBα (h)(5-10mU) wird in einem Endreaktionsvolumen von 25 µl mit 8 mM MOPS pH 7.0, 0.2 mM EDTRA, 30 µM GRPRTSSFAEGKK, 10 mM MgAcetat und [γ-^33P-ATP] inkubiert (spezifische Aktivität etwa 50 cpm/pmol, Konzentration wie erforderlich). Die Reaktion wird durch Zugabe von Mg^2+[γ-^33P-ATP] initiiert. Nach 40-minütiger Inkubation bei Raumtemperatur wird die Reaktion durch Zugabe von 5 µl einer 3 %igen Phosphorsäurelösung gestoppt. 10 µl der Reaktion werden dann auf ein P30-Filter gegeben und dreimal jeweils 5 Minuten in 50 mM Phosphorsäure und einmal in Methanol gewaschen. Anschließend wird getrocknet und eine Szintillationszählung durchgeführt.

MAPK1 (h) = MAPK1 (h) (Homo sapiens, UniProt P27361); assay: Kinase inhibition assay: MAPK1; details: 30µM Testsubstanz (100 µM ATP); read-out: Hemmung von Kinasen in % MAPK1 (h)
MAPK1 (h), sequence (P27361 whole entry): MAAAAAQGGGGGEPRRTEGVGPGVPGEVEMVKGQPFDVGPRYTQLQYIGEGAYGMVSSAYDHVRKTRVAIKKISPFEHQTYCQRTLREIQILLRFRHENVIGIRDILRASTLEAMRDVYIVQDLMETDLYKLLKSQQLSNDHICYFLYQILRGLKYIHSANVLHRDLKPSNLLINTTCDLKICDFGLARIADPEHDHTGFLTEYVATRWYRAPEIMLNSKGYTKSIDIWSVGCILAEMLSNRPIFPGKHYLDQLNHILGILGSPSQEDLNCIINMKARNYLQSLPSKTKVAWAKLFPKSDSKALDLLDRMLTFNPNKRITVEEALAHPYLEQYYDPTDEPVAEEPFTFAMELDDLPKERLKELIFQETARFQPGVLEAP
From the text: as §1, §2

c-RAF (h) = c-RAF (h) (Homo sapiens, UniProt P04049); assay: Kinase inhibition assay (33P-ATP, P30 filter, scintillation counting): c-RAF; details: 40 min; 30µM Testsubstanz (100 µM ATP); read-out: Hemmung von Kinasen in % c-RAF (h)
c-RAF (h), sequence (P04049 whole entry): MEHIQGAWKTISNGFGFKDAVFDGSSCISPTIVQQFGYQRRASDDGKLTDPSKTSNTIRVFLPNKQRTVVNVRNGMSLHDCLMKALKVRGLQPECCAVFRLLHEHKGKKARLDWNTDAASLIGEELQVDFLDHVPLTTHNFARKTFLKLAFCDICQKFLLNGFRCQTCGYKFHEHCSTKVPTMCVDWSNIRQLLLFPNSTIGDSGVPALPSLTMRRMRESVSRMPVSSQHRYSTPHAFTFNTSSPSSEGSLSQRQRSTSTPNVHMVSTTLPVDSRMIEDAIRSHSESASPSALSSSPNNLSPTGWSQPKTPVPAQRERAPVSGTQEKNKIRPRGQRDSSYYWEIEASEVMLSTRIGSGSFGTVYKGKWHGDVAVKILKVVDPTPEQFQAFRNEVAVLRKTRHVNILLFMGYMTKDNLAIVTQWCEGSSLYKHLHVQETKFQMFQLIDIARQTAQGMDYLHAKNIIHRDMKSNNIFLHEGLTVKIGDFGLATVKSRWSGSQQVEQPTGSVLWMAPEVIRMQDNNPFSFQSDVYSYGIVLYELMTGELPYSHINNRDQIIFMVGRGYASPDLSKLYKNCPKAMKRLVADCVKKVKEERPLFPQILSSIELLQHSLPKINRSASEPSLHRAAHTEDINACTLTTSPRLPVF
Experimental: as §1, §2
as §3, with “c-RAF (ha)(5-10 mU)” for “Lck (h)(5-10 mU)”, “mit 25” for “mit 50”, “pH 7.5,.0.02” for “pH 7.5, 0.1”, “EGTA, 0.66 mg/ml Myelin-Basisprotein,” for “EGTA, 0.1 mM NaVanadate, 250 µM KVEKIGEGTYGVVYK (Cdc2 Peptid),”, “etwa 50” for “etwa 500”

SAPK2a (h) = SAPK2a (h) (Homo sapiens, UniProt Q16539); assay: Kinase inhibition assay (33P-ATP, P30 filter, scintillation counting): SAPK2a; details: 30µM Testsubstanz (100 µM ATP); read-out: Hemmung von Kinasen in % SAPK2a (h)
SAPK2a (h), sequence (Q16539 whole entry): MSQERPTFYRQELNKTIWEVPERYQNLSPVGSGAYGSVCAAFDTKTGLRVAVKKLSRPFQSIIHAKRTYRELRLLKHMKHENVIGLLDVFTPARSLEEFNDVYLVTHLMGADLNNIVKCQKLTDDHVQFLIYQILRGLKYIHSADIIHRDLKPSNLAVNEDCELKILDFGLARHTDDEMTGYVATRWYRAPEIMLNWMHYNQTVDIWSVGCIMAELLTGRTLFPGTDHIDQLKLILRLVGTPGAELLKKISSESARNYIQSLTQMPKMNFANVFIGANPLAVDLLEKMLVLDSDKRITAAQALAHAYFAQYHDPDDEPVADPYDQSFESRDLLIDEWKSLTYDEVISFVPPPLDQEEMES
Experimental: as §1, §2
as §3, with “SAPK2a (h) wird in” for “Lck (h)(5-10 mU) in”, “µl” for “µl wird”, “mit 25” for “mit 50”, “pH 7,5, 0.02” for “pH 7.5, 0.1”, “EGTA, 0.33 mg/ml Myelin-Basisprotein,” for “EGTA, 0.1 mM NaVanadate, 250 µM KVEKIGEGTYGVVYK (Cdc2 Peptid),”, “etwa 50” for “etwa 500”

GSK3β (h) = GSK3β (h) (Homo sapiens, UniProt P49841); assay: Kinase inhibition assay (33P-ATP, P30 filter, scintillation counting): GSK3β; details: 30µM Testsubstanz (100 µM ATP); read-out: Hemmung von Kinasen in % GSK3β (h)
GSK3β (h), sequence (P49841 whole entry): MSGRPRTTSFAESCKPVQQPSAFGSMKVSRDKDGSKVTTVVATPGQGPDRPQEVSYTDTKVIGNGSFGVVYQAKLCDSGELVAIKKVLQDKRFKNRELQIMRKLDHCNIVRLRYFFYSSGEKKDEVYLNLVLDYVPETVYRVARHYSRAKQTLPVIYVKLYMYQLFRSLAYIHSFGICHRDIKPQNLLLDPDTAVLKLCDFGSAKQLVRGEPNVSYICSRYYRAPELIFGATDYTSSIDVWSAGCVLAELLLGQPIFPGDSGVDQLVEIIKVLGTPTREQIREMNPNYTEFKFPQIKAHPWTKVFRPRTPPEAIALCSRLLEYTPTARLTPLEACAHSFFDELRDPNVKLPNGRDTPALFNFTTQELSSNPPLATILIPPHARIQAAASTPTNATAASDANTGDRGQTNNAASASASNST
Experimental: as §1, §2
GSK3β (h)(5-10mU) in einem Endreaktionsvolumen von 25 µl wird mit 8 mM MOPS pH 7.0, 0.2 mM EDTA, 20 µM […](p) EDEEE (phospho GS2 Peptid), 10 mM MgAcetat und [γ-^33P-ATP] inkubiert (spezifische Aktivität etwa 500 cpm/pmol, Konzentration wie erforderlich). Die Reaktion wird durch Zugabe von Mg^2+[γ-^33P-ATP] initiiert. Nach 40-minütiger Inkubation bei Raumtemperatur wird die Reaktion durch Zugabe von 5 µl einer 3 %igen Phosphorsäurelösung gestoppt. 10 µl der Reaktion werden dann auf ein P30-Filter gegeben und dreimal jeweils 5 Minuten in 50 mM Phosphorsäure und einmal in Methanol gewaschen. Anschließend wird getrocknet und eine Szintillationszählung durchgeführt.

PKA (h) = assay: Kinase inhibition assay (33P-ATP, P30 filter, scintillation counting): PKA; details: 30µM Testsubstanz (100 µM ATP); 40 min
MEK1 (h) = MEK1 (h) (Homo sapiens, UniProt Q02750); assay: Kinase inhibition assay: MEK1 (coupled to MAPK2 assay); details: 30µM Testsubstanz (100 µM ATP); read-out: Hemmung von Kinasen in % MEK1 (h)
MEK1 (h), sequence (Q02750 whole entry): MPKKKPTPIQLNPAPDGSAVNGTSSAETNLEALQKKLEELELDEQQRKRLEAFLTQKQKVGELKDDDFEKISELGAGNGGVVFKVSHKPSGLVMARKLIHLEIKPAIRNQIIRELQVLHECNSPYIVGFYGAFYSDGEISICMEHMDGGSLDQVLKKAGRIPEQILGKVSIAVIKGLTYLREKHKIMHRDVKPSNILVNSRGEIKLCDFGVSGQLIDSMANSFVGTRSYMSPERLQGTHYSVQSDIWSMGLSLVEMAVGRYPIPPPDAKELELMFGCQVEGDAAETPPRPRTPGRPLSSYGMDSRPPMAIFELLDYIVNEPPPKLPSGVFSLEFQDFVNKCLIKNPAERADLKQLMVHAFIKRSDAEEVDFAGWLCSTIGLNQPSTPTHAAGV
Experimental: as §1, §2
MEK1 (h)(1-5 mU) in einem Endreaktionsvolumen von 25 µl wird mit 50 mM Tris pH 7.5, 0.2 mM EGTA, 0.1 % b-Mercaptoethanol, 0,01 % Brij-35, 1 µM inaktives MAPK2 (m), 10 mM MgAcetat und kaltem ATP inkubiert (Konzentration wie erforderlich). Die Reaktion wird durch Zugabe von MgATB initiiert. Nach 40-minütiger Inkubation bei Raumtemperatur werden […] dieses Inkubationsgemisches dazu verwendet, den oben beschriebenen MAPK2-Assay zu initiieren.

MAPK2 (h) = MAPK2 (h) (Homo sapiens, UniProt P28482); assay: Kinase inhibition assay: MAPK2; details: 30µM Testsubstanz (100 µM ATP); read-out: Hemmung von Kinasen in % MAPK2 (h)
MAPK2 (h), sequence (P28482 whole entry): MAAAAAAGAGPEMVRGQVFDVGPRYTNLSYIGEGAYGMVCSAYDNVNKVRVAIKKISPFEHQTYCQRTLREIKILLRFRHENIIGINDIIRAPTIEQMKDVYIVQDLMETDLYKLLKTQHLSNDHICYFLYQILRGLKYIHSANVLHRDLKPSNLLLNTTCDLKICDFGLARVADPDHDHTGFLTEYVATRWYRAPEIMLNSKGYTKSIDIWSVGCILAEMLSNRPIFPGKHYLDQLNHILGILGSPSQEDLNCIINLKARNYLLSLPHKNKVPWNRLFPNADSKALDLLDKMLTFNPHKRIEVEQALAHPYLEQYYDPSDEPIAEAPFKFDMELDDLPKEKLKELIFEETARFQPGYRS
From the text: as §1, §2

JNK3 (r) = JNK3 (r) (Rattus norvegicus, UniProt P49187); assay: Kinase inhibition assay: JNK3; details: 30µM Testsubstanz (100 µM ATP); read-out: Hemmung von Kinasen in % JNK3 (r)
JNK3 (r), sequence (P49187 whole entry): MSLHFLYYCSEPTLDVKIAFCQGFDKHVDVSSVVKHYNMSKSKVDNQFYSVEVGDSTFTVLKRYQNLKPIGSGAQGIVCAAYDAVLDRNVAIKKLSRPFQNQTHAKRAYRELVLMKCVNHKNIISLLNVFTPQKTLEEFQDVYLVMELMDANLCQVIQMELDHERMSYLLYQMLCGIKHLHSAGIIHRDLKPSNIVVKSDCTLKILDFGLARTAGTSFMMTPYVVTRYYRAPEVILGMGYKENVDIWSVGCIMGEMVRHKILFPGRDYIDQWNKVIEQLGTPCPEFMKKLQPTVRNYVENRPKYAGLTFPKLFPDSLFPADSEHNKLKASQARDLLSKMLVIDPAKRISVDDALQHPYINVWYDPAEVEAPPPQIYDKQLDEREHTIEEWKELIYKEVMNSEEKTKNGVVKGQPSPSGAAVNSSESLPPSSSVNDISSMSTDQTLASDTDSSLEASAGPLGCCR
From the text: as §1, §2

ROCKII (h) = assay: Kinase inhibition assay (33P-ATP, P30 filter, scintillation counting): ROCK-II; details: 30µM Testsubstanz (100 µM ATP); 40 min

Lck (h), sequence (P06239 whole entry): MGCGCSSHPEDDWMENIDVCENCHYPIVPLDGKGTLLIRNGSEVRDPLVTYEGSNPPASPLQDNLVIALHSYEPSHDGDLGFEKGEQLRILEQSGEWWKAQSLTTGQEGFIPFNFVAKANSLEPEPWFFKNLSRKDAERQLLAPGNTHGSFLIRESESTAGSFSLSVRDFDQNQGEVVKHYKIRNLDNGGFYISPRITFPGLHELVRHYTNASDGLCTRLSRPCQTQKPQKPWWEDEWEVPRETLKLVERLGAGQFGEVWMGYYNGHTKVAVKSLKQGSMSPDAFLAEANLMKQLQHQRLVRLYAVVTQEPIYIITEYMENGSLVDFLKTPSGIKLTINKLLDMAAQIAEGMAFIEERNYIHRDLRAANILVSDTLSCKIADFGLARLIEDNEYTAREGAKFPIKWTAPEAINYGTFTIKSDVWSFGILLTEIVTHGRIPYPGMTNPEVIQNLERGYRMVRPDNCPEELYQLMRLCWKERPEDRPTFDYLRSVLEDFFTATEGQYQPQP

Row | Structure (SMILES) | inhibition at 30 µM (Lck (h)) [%] | inhibition at 30 µM (PKB (h)) [%] | inhibition at 30 µM (MAPK1 (h)) [%] | inhibition at 30 µM (c-RAF (h)) [%] | inhibition at 30 µM (SAPK2a (h)) [%] | inhibition at 30 µM (GSK3β (h)) [%] | Hemmung von Kinasen in % PKA (h) (PKA (h)) [%] | inhibition at 30 µM (MEK1 (h)) [%] | inhibition at 30 µM (MAPK2 (h)) [%] | inhibition at 30 µM (JNK3 (r)) [%] | Hemmung von Kinasen in % ROCKII (h) (ROCKII (h)) [%]
1 | Fc1ccc(Cn2cnc3c(Sc4ccccc4)ncnc32)cc1 [Verbd. 76, 9-(4-Fluoro-benzyl)-6-phenylsulfanyl-9H-purin] | 12 | 13 | 17 | 0 | 67 | 0 | 0 | 1 | 0 | 0 | 2
2 | Fc1ccc(Cn2cnc3c(Sc4ccc(F)cc4)ncnc32)cc1 [Verbd. 77, 9-(4-Fluoro-benzyl)-6-(4-fluoro-phenylsulfanyl)-9H-purin] | 16 | 0 | 6 | 0 | 27 | 8 | 0 | 3 | 0 | 0 | 0
3 | Cn1c(C#CCCO)nc2c(Sc3ccccc3)ncnc21 [Verbd. 79, 4-(9-Methyl-6-phenylsulfanyl-9H-purin-8-yl)-but-3-yn-1-ol] | 11 | 33 | 0 | 0 | 3 | 0 | 0 | 0 | 0 | 0 | 0
